pIC50: −log10 of the molar value.
Legend:
CDK19/CycC = CDK19/CycC (Homo sapiens, UniProt Q9BWU1); experiment: LanthaScreen europium kinase binding assay (FRET displacement), CDK19; settings: for CDK19 Selectivity: CDK19/CDK8 selectivity based on IC50 values; for pIC50: his-tagged CDK19/CycC 5 nM, tracer 10 nM, 3 h incubation
Procedure: (§1) FRET Displacement Assay to Measure IC50: The CDK19/CDK8 IC50 values were measured to evaluate activity and to determine CDK19/CDK8 selectivity. The IC50 values of the disclosed compounds was measured using a LanthaScreen™ europium kinase binding assay (ThermoFisher), as described herein.
To a kinase buffer cocktail solution (i.e., 5× Kinase Buffer A) was added: purified recombinant his-tagged CDK19/CycC protein (5 nM), ATP-competitive kinase inhibitor scaffold kinase tracer Alexa Fluor® 665 (10 nM), biotin anti-his tag antibody (2 nM), LanthaScreen® europium-streptavidin (2 nM). An aliquot of the cocktail solution (10 μL) was added to each well of a LUMITRAC™ 200:384 flat bottom, non-treated microtiter white plate. The plate was then covered to protect light sensitive reagents and incubated for 30 min at room temperature to equilibrate before addition of any inhibitors.
(§2) A serial dilution of the compounds was titrated into each well using an automated liquid handling Staccato integrated system at the following concentration(s) (Log10 Molar [C]): −4.5, −5.0, −5.5, −6.0, −6.5, −7.0, −7.5, −8.0 so that a complete dose-response could be calculated. A Tecan microplate reader infinite m200 instrument was then used to measure the FRET signal of each individual well using an excitation of 317/20 nm, emission europium of 620/12 nm, and emission kinase tracer of 665/12 nm after a 3 h incubation period at room temperature until steady-state kinetics were achieved.
(§3) Results were performed in duplicate and were repeated a total of 3 independent times before data was normalized to the DMSO control group and IC50 values reported.

CDK8 = CDK8 (Homo sapiens, UniProt P49336); experiment: LanthaScreen europium kinase binding assay (FRET displacement), CDK8
Procedure: as §1
[…] An aliquot of the cocktail solution (10 μL) was added to each well of a LUMITRAC™ 200:384 flat bottom, non-treated microtiter white plate. The plate was then covered to protect light sensitive reagents and incubated for 30 min at room temperature to equilibrate before addition of any inhibitors.
as §2, §3

CDK19/CycC, sequence (Q9BWU1 whole entry): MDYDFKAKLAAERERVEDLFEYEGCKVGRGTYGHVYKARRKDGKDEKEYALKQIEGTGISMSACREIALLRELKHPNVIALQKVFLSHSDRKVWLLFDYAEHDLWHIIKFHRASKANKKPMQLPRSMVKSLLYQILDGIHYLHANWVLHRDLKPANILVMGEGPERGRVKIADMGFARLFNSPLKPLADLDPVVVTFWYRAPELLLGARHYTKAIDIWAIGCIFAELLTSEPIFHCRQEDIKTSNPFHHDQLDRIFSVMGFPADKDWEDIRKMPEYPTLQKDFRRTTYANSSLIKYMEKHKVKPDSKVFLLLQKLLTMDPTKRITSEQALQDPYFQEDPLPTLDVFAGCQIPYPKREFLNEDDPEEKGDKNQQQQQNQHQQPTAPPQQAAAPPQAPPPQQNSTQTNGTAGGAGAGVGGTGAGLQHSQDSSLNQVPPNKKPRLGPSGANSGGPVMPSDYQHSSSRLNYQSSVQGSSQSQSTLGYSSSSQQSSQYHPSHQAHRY
CDK19/CycC, sequence (P24863 whole entry partner): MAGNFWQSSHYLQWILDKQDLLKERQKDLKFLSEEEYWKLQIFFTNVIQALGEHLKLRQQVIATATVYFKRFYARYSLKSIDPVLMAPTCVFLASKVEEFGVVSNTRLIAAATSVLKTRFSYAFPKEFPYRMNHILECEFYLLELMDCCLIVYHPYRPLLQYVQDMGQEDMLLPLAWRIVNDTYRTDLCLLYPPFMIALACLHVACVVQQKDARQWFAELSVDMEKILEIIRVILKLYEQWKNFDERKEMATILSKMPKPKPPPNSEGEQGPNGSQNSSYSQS
CDK8, sequence (P49336 whole entry): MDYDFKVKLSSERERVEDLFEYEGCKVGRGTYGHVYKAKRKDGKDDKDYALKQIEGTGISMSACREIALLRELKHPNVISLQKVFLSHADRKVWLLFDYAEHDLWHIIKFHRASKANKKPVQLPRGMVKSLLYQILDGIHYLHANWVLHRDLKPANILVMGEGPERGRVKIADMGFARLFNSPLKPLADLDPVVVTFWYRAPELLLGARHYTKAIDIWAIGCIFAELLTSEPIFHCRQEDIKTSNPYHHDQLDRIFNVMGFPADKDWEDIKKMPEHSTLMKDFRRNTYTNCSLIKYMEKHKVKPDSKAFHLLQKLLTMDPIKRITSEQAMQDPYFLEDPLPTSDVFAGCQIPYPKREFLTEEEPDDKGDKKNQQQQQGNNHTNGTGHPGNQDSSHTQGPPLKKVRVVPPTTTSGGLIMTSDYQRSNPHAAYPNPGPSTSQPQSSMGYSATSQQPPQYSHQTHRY
CDK8, sequence (P24863 whole entry partner): as the sequence (P24863 whole entry partner) above

Row | CDK19 Selectivity (CDK19/CycC) | pIC50 (CDK19/CycC) | pIC50 (CDK8) | SMILES
1 |  | ≥ 8.60 | 8.52 | CC(C)Oc1ccc(Nc2ncc(Nc3ccncc3C(F)(F)F)cn2)cc1 [Compound A177]
2 | 4.6 | 7.06 | 6.39 | CC(C)Cc1ccc(Nc2ncc(Nc3ccnc(C(C)C)c3)cn2)cc1 [Compound A46]
3 | 5 | 6.15 | 5.45 | CC(C)Cc1ccc(Nc2ncc(Nc3cccnc3)cn2)cc1 [Compound A52, N2-(4-isobutylphenyl)-N5-(pyridin-3-yl)pyrimidine-2,5-diamine]
4 | 4.8 | 8.30 | 7.62 | CC(C)Cc1ccc(Nc2ncc(Cc3ccncc3)cn2)cc1 [Compound A138]
5 | 1.3 | 7.62 | 7.51 | Cc1cnccc1Nc1cnc(Nc2ccc(CC(C)C)cc2)nc1C [Compound A22]
6 | 5 | 7.28 | 6.61 | CC(C)Cc1ccc(Nc2ncc(Nc3ccnc(C4CC4)c3)cn2)cc1 [Compound A173]
7 | 0.8 | 7.35 | 7.46 | CC(C)Cc1ccc(Nc2ncc(Nc3ccncc3OC3CCCCC3)cn2)cc1 [Compound A54]
8 | 2 | 7.64 | 7.30 | Cc1cnc(F)cc1Nc1cnc(Nc2ccc(CC(C)C)cc2)nc1 [Compound A150]
9 | 5 | 7.27 | 6.61 | CC(C)Cc1ccc(Nc2ncc(Nc3ccncc3C#Cc3ccccc3)cn2)cc1 [Compound A156]
10 | ≥6 | ≥ 8.60 | 7.80 | Cc1cnccc1C(=O)c1cnc(Nc2ccc(CC(C)C)cc2)nc1 [Compound A73, (2-((4-isobutylphenyl)amino)pyrimidin-5-yl) (3-methylpyridin-4-yl) methanone]
11 | 5 | 7.39 | 6.70 | CC(C)Cc1ccc(Nc2ccc(C(=O)c3ccncc3Cl)cn2)cc1 [Compound A123]
12 | 3.9 | 5.60 | 5.03 | CC(C)Cc1ccc(Nc2ncc(C(=O)Nc3ccncc3)cn2)cc1 [Compound A49, 2-((4-isobutylphenyl)amino)-N-(pyridin-4-yl)pyrimidine-5-carboxamide]
13 | 9 | 5.95 | 5.00 | CC(C)Cc1ccc(Nc2ncc(-c3cc(C#N)ccn3)cn2)cc1 [Compound A96]
14 | 3.2 | 8.26 | 7.74 | CC(C)Cc1ccc(Nc2ncc(C(F)(F)c3ccncc3)cn2)cc1 [Compound A139]
15 | 3 | 7.12 | 6.65 | CC(C)Cc1ccc(Nc2ncc(Nc3ccncc3C3CC3)cn2)cc1 [Compound A164]
16 |  | 5.97 | 5.33 | CC(C)Cc1ccc(Nc2ncc(S(=O)(=O)c3ccncc3)cn2)cc1 [Compound A152]
17 | 0.9 | 7.80 | 7.82 | COc1cnccc1Nc1cnc(Nc2ccc(CC(C)C)cc2)nc1C [Compound A25]
18 |  | 6.58 | 6.22 | CC(C)Cc1ccc(Nc2ncc(Nc3ccc4c(c3)CNC4=O)cn2)cc1 [Compound A153]
19 | 3.3 | 7.54 | 7.02 | CCCc1ccc(Nc2ncc(Nc3ccncc3)cn2)cc1 [Compound A14]
20 | 2 | ≥ 8.60 | 8.52 | CC(C)Cc1ccc(Nc2ncc(Nc3ccncc3Cl)cn2)cc1 [Compound A57]
21 | 2.5 |  |  | CC(C)Cc1ccc(Nc2ncc(Nc3ccncc3)cn2)cc1 [Compound A140]
22 | 2.5 |  |  | Cc1cc(Nc2cnc(Nc3ccc(CC(C)C)cc3)nc2)ccn1 [Compound A144]
23 | 3.3 |  |  | Cc1cc(Nc2cnc(Nc3ccc(CC(C)C)cc3)nc2)ccn1 [Compound A8]
24 | 3 |  |  | CC(C)Cc1ccc(Nc2ncc(Nc3ccncc3)cn2)cc1 [Compound A5]
25 |  | 4.60 |  | Cc1cc(CC(C)C)cc(Nc2ncc(Nc3ccncc3)cn2)c1 [Compound A40]

The remaining lines, values behind:

Row | SMILES | CDK19 Selectivity (CDK19/CycC) | pIC50 (CDK19/CycC) | pIC50 (CDK8)
26 | CC(C)Cc1cccc(Nc2ncc(Nc3ccnc(C(C)C)c3)cn2)c1 [Compound A34] | 5 | 6.04 | 5.35
27 | Cc1cc(C(=O)c2cnc(Nc3ccc(CC(C)C)cc3)nc2)ccn1 [Compound A71] | 3 | ≥ 8.60 | 8.22
28 | c1cc(Nc2cnc(Nc3ccc(C4CCOCC4)cc3)nc2)c(OC2CCCC2)cn1 [Compound A180] |  | 8.40 | 8.22
29 | c1ccc2c(Nc3cnc(Nc4ccc(CC5CC5)cc4)nc3)ccnc2c1 [Compound A43] | 6 | 8.22 | 7.43
30 | c1cc(Nc2cnc(Nc3ccc(C4CCCCC4)cc3)nc2)c(OC2CCCC2)cn1 [Compound A1] | 1.2 | 7.16 | 7.23
31 | Cc1cncc(F)c1C(=O)c1cnc(Nc2ccc(CC(C)C)cc2)nc1 [Compound A117] | 1.5 | 5.19 | 5.00
32 | CC(C)Cc1ccc(Nc2ccc(Oc3ccncc3)cn2)cc1 [Compound A83] | 1 | 5.23 | 5.08
33 | CC(C)Cc1ccc(Nc2ncc(C(=O)c3ccncc3)cn2)c(F)c1 [Compound A129] | 2.4 | ≥ 8.60 | 8.46
34 | Cc1cc(CC(C)C)ccc1Nc1ncc(C(=O)c2ccncc2)cn1 [Compound A128] | 3.8 | 8.05 | 7.47
35 | COc1cc(CC(C)C)ccc1Nc1ncc(C(=O)c2ccncc2OC2CCCC2)cn1 [Compound A171] | 2 | 7.80 | 7.60
36 | c1cc(Nc2cnc(Nc3ccc(C4CC4)cc3)nc2)ccn1 [Compound A16] | 2.8 | 6.88 | 6.43
37 | Cc1cc(Nc2cnc(Nc3cccc(CC(C)C)c3)nc2)ccn1 [Compound A29] | 2 | 6.00 | 5.69
38 | Cc1cnccc1Nc1cnc(Nc2ccc(OC(C)C)cc2F)nc1 [Compound A162] | 4 | 7.05 | 6.44
39 | O=C(NC1CCCC1)c1cnccc1Nc1cnc(Nc2ccc(C3CCCCC3)cc2)nc1 [Compound A151] |  | 5.95 | 
40 | FC(F)C(F)(F)Oc1ccc(Nc2ncc(Nc3ccncc3)cn2)cc1 [Compound A19] | 4.2 | 8.04 | 7.42
41 | c1cc(Nc2ncc(Nc3ccncc3)cn2)cc(C2CC2)c1 [Compound A26] | 1.6 | 5.24 | 5.04
42 | CC(C)Cc1ccc(Nc2ncc(C(=O)c3ccncc3OC3CCCC3)cn2)cc1 [Compound A170] | 2 | 8.40 | 8.15
43 | Cc1cc(Nc2cnc(Nc3cccc(C4CC4)c3)nc2)ccn1 [Compound A24] |  | 5.01 | 5.00
44 | c1cc(Nc2cnc(Nc3ccc(C4COC4)cc3)nc2)c(OC2CCCC2)cn1 [Compound A2] | 1.2 | 7.96 | 7.85
45 | CC(C)Cc1ccc(Nc2ccc(-c3ccccc3)cn2)cc1 [Compound A76] | 3 | 5.76 | 5.29

— US20240351996A1, “CDK19-SELECTIVE INHIBITORS, AND METHODS OF USE THEREOF” (CZ BIOHUB SF, LLC, priority 2022, published 2024)
